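Briefly, cells in 96-well plates were exposed to five compound concentrations for 48 h, and endpoints were estimated by linear interpolation. TGI is the concentration that stops growth completely.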
Columns and labels:
Experiment in all cases: NCI-60 cell line screen, 48 h
LOX IMVI melanoma = system: LOX IMVI melanoma
OVCAR-4 ovarian = system: OVCAR-4 ovarian
UACC-257 melanoma = system: UACC-257 melanoma
NCI-H460 lung = system: NCI-H460 lung
T-47D breast = system: T-47D breast
DU-145 prostate = system: DU-145 prostate
M14 melanoma = system: M14 melanoma
ACHN renal = system: ACHN renal
HCT-116 colon = system: HCT-116 colon
MDA-MB-435 = system: MDA-MB-435
HOP-92 NSCLC = system: HOP-92 NSCLC
SN12C renal = system: SN12C renal
SR leukemia = system: SR leukemia
MDA-MB-231 breast = system: MDA-MB-231 breast

| SMILES | TGI (LOX IMVI melanoma) [µM] | TGI (OVCAR-4 ovarian) [µM] | TGI (UACC-257 melanoma) [µM] | TGI (NCI-H460 lung) [µM] | TGI (T-47D breast) [µM] | TGI (DU-145 prostate) [µM] | TGI (M14 melanoma) [µM] | TGI (ACHN renal) [µM] | TGI (HCT-116 colon) [µM] | TGI (MDA-MB-435) [µM] | TGI (HOP-92 NSCLC) [µM] | TGI (SN12C renal) [µM] | TGI (SR leukemia) [µM] | TGI (MDA-MB-231 breast) [µM] |
| --- | --- | --- | --- | --- | --- | --- | --- | --- | --- | --- | --- | --- | --- | --- |
| COc1c(C(CC(C)C)OC(C)=O)ccc2c1C(=O)OCc1cc(C)cc(O)c1O2 (stereo not given) | 27.8 | 27.1 | 21.6 | 26.8 | 23.6 | 25.8 | 31.3 | 23.2 | 25.1 | 26.6 | 24.5 | 27.2 | > 100 | – |
| c1ccc2c(c1)n1c(N3CCOCC3)[n+]3ccccc3c1c1c3cccc[n+]3c(N3CCOCC3)n21 | > 100 | > 100 | > 100 | > 100 | > 100 | > 100 | > 100 | > 100 | > 100 | > 100 | > 100 | > 100 | > 100 | > 100 |
| CC(C)[Si](OCC/C=C/C1CCC(=O)C1C(O)C1CCCCC1)(C(C)C)C(C)C (stereo not given) | 32.7 | 38.6 | 29.5 | 30.7 | 33.7 | 32 | 37.8 | 27.9 | 28 | 34.5 | 27.7 | 34.4 | 14.8 | 36.3 |
| CN(C)Cc1cc(C(=O)/C=C/c2c(Cl)cccc2Cl)cc(CN(C)C)c1O | 4.45 | 24.8 | 16.9 | 13 | 42 | 20.8 | 18.9 | 12.4 | 19.6 | 21.9 | 9.06 | 21 | 22.6 | 15.1 |
| COc1ccccc1NC(=S)Nc1cccc(C)n1 | > 100 | > 100 | > 100 | > 100 | > 100 | > 100 | > 100 | – | > 100 | > 100 | – | > 100 | > 100 | – |
| CCOC(=O)c1c(-c2ccc(Cl)cc2)c(C#N)c(=S)n(C2OC(CO)C(O)C(O)C2O)c1-c1ccccc1 (stereo not given) | 33.5 | > 100 | 62.9 | 87.5 | 54.4 | > 100 | 37.6 | > 100 | 35.3 | 48.6 | 42.6 | > 100 | > 100 | 75.9 |
| c1ccc2c(OCC3CO3)ccc(OCC3CO3)c2c1 (stereo not given) | 2.08 | 21 | 20 | 12.5 | 15.4 | 5.47 | 13.3 | 6.48 | 2.76 | 7.74 | 18.4 | 11.5 | 11.1 | 22.3 |
| COC(=O)C(Cc1ccccc1)C(=O)NC(CNC(=O)OCc1ccccc1)C(=O)OCc1ccccc1 (stereo not given) | 36 | > 100 | 34.7 | > 100 | > 100 | > 100 | 30.4 | > 100 | 77.9 | 50 | > 72.3 | > 100 | > 69.2 | 50.3 |
| COC(=O)C1=C(C(=O)OC)C(C(=O)c2ccccc2)N2N=C(c3ccc(Cl)cc3)C=CC12 (stereo not given) | > 100 | > 100 | > 100 | > 100 | > 100 | > 100 | > 100 | > 100 | > 100 | > 100 | > 100 | > 100 | > 100 | > 100 |
| CC1(C)C[C@H]2C3=CC[C@@H]4[C@@]5(C)CC[C@H](O)C(C)(C)[C@@H]5CC[C@@]4(C)[C@]3(C)C[C@@H](O)[C@@]23C[C@@H]1OC3=O | > 100 | > 100 | > 100 | > 100 | > 100 | > 100 | > 100 | > 100 | > 100 | > 100 | > 100 | > 100 | > 100 | > 100 |
| O=C(O)c1ccccc1C(=O)OCC1CCCN2CCCCC12 (stereo not given) | > 100 | > 100 | > 100 | > 100 | > 100 | > 100 | > 100 | > 100 | > 100 | > 100 | > 100 | > 100 | > 100 | > 100 |
| CC1=CC[C@@]2(C)[C@@H]([C@@H]1C)[C@H]1CC[C@@H]3[C@@]4(C)CC[C@H](O)C(C)(C)[C@@H]4CC[C@@]3(C)[C@]1(C)C[C@@H]2O | 16 | > 82.2 | 34.8 | > 67.7 | > 74.9 | 25.6 | 32.3 | 36 | > 58 | 70.2 | 53 | > 100 | 7.34 | 20.2 |
| CC1=C(C#N)C(=O)N(/N=C/c2ccc(Cl)cc2)C(=O)/C1=c1\o/c(=C2/C(=O)N(/N=C/c3ccc(Cl)cc3)C(=O)C(C#N)=C2C)c2nccnc12 | > 100 | > 100 | > 100 | > 100 | > 100 | > 100 | > 100 | > 100 | > 100 | > 100 | > 100 | > 100 | > 100 | > 100 |
| Cc1ccc(-c2cnc(NC3OC(COC(=O)c4ccccc4)C(OC(=O)c4ccccc4)C(OC(=O)c4ccccc4)C3OC(=O)c3ccccc3)s2)cc1 (stereo not given) | > 100 | > 100 | > 100 | > 100 | > 100 | > 100 | > 100 | > 100 | > 100 | > 100 | > 100 | > 100 | > 100 | > 100 |
| Cc1ccc2nc(CN3CCCCC3)cc(=O)n2c1 | > 100 | > 100 | > 100 | > 100 | – | > 100 | > 100 | > 100 | > 100 | > 100 | > 100 | > 100 | > 100 | > 100 |
| COC(=O)c1cccc(C)c1C1CN=NC12Cc1c(ccc(C)c1C)C2=O (stereo not given) | > 100 | > 100 | > 100 | > 100 | 25.1 | > 100 | > 100 | > 100 | > 100 | > 100 | > 100 | > 100 | > 100 | > 100 |

| SMILES | TGI (LOX IMVI melanoma) [µM] | TGI (OVCAR-4 ovarian) [µM] | TGI (UACC-257 melanoma) [µM] | TGI (NCI-H460 lung) [µM] | TGI (T-47D breast) [µM] | TGI (DU-145 prostate) [µM] | TGI (M14 melanoma) [µM] | TGI (ACHN renal) [µM] | TGI (HCT-116 colon) [µM] | TGI (MDA-MB-435) [µM] | TGI (HOP-92 NSCLC) [µM] | TGI (SN12C renal) [µM] | TGI (SR leukemia) [µM] | TGI (MDA-MB-231 breast) [µM] |
| --- | --- | --- | --- | --- | --- | --- | --- | --- | --- | --- | --- | --- | --- | --- |
| COc1c(C(=O)O)cccc1-c1cccc(C(=O)NCCN(CCNC(=O)c2cccc(-c3cccc(C(=O)O)c3OC)c2OC)CCNC(=O)c2cccc(-c3cccc(C(=O)O)c3OC)c2OC)c1OC | > 100 | > 100 | > 100 | > 100 | > 100 | > 100 | – | > 100 | > 100 | 34.3 | > 100 | 89.9 | 44.1 | > 100 |
| CCC1=NC(N/N=C/c2ccccc2O)=N/C1=C\c1ccccc1O | > 42.9 | > 31.3 | > 100 | 18.7 | > 76.5 | > 64.7 | 51.9 | 29.5 | 39.8 | > 81.2 | > 84 | > 83 | > 100 | > 100 |
| CCN(CC)CCN1CCN=c2c3cc(OC)ccc3n3cnc4ccc1c2c43 | 1.07 | 1.26 | 3.74 | 0.724 | 23.3 | 4.39 | 2.85 | 3.61 | 2.84 | 1.92 | 4.42 | 3.38 | 1.64 | 2.33 |
| COc1ccc(OC)c2c(=O)cc(-c3ccccc3)[nH]c12 | > 100 | > 100 | > 100 | > 100 | > 100 | > 100 | > 100 | > 100 | > 100 | > 100 | – | > 100 | > 100 | > 100 |
| Cc1ccc(S(=O)(=O)Oc2coc(CO)cc2=O)cc1 | 14.9 | 32.3 | 43.4 | 31.1 | 30 | 27.1 | 25.9 | 38.2 | 15 | 30.7 | 39.6 | 25.3 | > 85.5 | 41.7 |
| CNC(=O)C(C)NC(=O)C(Cc1ccccc1)NC(=O)OC(C)(C)C (stereo not given) | > 100 | – | > 100 | > 100 | > 100 | > 100 | > 100 | > 100 | > 100 | > 100 | > 100 | > 100 | > 100 | > 100 |
| O=c1[nH]c2nccn2c(Cl)c1Br | 34.4 | 34.9 | 45.7 | > 100 | 67.8 | > 100 | 34.5 | 70.1 | > 100 | 42 | 78.7 | 67.5 | 48.7 | 37.4 |
| CCOC(=O)C(NC(=O)NCc1ccc(F)cc1)C(F)(F)F (stereo not given) | > 100 | – | > 100 | – | > 100 | – | > 100 | > 100 | > 100 | > 100 | – | > 100 | > 100 | – |
| Cc1nn(-c2ccccc2)c2nc3c(c(C)nn3-c3ccccc3)c(-c3ccccc3Br)c12 | > 100 | > 100 | > 100 | > 100 | > 100 | > 100 | > 100 | > 100 | > 100 | > 100 | > 100 | > 100 | > 100 | > 100 |
| CCCOc1ccc(/C=C/C2=[N+](CCO)CCO2)cc1 | – | > 100 | > 100 | > 100 | > 100 | > 100 | > 100 | > 100 | > 100 | > 100 | > 100 | > 100 | > 100 | > 100 |
| CC1=C(C(=O)OC23CC4CC(CC(C4)C2)C3)C(c2ccccc2OC(F)F)C(C(=O)OC23CC4CC(CC(C4)C2)C3)=C(C)N1 (stereo not given) | > 100 | > 100 | > 100 | > 100 | > 100 | > 100 | > 100 | – | > 100 | > 100 | > 100 | > 100 | > 100 | > 100 |
| CC(=O)CCC(=O)CC(O)(C(F)(F)F)C(F)(F)F | – | 37 | 33.7 | 38.6 | 40 | 37.8 | 34.9 | 42.6 | 31.3 | 34.6 | 26.7 | 36.5 | 32 | 35 |
| O=C(n1[nH]c(=O)n(-c2ccc([N+](=O)[O-])cc2)c1=O)C(Cl)(Cl)Cl | > 75 | > 75 | > 75 | > 75 | > 75 | > 75 | > 75 | > 75 | > 75 | > 75 | – | > 75 | > 75 | > 75 |
| COCC1OCCN1C (stereo not given) | > 100 | > 100 | > 100 | > 100 | > 100 | – | > 100 | > 100 | > 100 | > 100 | > 100 | – | > 100 | > 100 |
| O=S(=O)([N-]c1nc2ccccc2nc1-[n+]1ccccc1)c1ccccc1 | > 100 | > 100 | > 100 | > 100 | > 100 | – | > 100 | > 100 | > 100 | – | > 100 | > 100 | 77.3 | 84.8 |
| CN=C1Nc2ccccc2C(=S)N2CSC[C@@H]12 | – | > 100 | – | > 100 | > 100 | > 100 | > 100 | > 100 | > 100 | > 100 | > 100 | > 100 | > 100 | > 100 |
